The values below come from ChEMBL document CHEMBL4177690, “(E)-3-(3,4,5-Trimethoxyphenyl)-1-(pyridin-4-yl)prop-2-en-1-one, a heterocyclic chalcone is a potent and selective CYP1A1 inhibitor and cancer chemopreventive agent” (Bioorg Med Chem Lett, 2017).

Each structure is given as a SMILES string.

In experiment [1] the target is T1, Cytochrome P450 1A2 (Homo sapiens, UniProt P05177).
T1 sequence (P05177 whole entry): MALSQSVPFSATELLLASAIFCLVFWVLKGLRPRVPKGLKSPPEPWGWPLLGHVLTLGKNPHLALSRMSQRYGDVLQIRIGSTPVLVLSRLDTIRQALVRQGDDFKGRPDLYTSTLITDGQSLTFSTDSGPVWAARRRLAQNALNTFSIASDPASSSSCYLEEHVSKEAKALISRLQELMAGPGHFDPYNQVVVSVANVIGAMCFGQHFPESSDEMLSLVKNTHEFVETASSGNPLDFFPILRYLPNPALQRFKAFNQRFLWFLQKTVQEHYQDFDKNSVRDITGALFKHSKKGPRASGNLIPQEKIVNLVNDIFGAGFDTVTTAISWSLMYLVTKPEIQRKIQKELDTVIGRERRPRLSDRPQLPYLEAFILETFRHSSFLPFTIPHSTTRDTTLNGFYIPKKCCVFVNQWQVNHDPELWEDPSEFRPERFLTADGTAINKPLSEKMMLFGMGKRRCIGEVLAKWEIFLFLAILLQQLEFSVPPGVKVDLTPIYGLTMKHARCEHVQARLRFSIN
Description: Inhibition of recombinant human CYP1A2 expressed in HEK293 cells using 3-cyano-7-ethoxycoumarin as substrate pretreated for 30 mins followed by substrate addition measured for 60 mins by fluorescence assay. It counts as ADME.

Experiment [2] deals with T2, Cytochrome P450 2C19 (Homo sapiens, UniProt P33261). In words: Inhibition of human CYP2C19 expressed in yeast microsomal membranes using 3-cyano-7-ethoxycoumarin as substrate measured after 10 mins by fluorescence assay. It counts as ADME, cell membranes, Microsomal Membrane.
T2 sequence (P33261 whole entry): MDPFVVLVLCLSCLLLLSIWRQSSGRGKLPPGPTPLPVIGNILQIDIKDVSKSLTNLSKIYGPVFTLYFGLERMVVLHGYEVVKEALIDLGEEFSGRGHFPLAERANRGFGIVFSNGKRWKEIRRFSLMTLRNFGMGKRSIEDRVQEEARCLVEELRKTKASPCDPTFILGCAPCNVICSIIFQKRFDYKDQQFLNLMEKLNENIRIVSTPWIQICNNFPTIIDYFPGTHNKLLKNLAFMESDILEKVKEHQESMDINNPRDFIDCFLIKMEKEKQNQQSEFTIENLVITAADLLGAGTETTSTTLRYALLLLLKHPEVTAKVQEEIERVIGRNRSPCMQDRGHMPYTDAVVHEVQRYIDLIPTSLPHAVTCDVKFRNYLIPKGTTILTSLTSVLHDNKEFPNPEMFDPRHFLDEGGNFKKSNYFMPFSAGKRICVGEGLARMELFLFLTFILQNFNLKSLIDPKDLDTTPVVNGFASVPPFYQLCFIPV
Experiment [3] addresses T3, Cytochrome P450 3A4 (Homo sapiens, UniProt P08684). In words: Inhibition of human CYP3A4 expressed in yeast microsomal membranes using dibenzylfluorescein as substrate measured after 10 mins by fluorescence assay. It counts as ADME, cell membranes, Microsomal Membrane.
In experiment [4] the target is T4, Cytochrome P450 2C9 (Homo sapiens, UniProt P11712). In words: Inhibition of human CYP2C9 expressed in yeast microsomal membranes using 3-cyano-7-ethoxycoumarin as substrate measured after 10 mins by fluorescence assay. It counts as ADME, cell membranes, Microsomal Membrane.
T4 sequence (P11712 whole entry): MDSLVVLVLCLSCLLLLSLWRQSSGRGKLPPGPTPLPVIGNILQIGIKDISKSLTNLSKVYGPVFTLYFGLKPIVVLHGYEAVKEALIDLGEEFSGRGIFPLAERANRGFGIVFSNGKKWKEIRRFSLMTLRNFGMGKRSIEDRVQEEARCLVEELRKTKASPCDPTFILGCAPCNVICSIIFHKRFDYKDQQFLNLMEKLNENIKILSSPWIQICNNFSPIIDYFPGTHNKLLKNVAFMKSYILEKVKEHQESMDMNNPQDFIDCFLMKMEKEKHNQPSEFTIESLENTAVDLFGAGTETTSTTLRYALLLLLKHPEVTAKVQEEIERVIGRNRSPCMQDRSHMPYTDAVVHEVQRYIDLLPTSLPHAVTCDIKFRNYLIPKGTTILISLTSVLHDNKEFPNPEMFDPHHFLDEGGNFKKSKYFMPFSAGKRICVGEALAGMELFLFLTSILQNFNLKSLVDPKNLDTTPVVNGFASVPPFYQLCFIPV
Experiment [5] has as its target T3, Cytochrome P450 3A4. Description: Inhibition of recombinant human CYP3A4 expressed in HEK293 cells using dibenzylfluorescein as substrate pretreated for 30 mins followed by substrate addition measured for 60 mins by fluorescence assay. It counts as ADME.
For experiment [6], the target named is T1, Cytochrome P450 1A2. In words: Inhibition of human CYP1A2 expressed in yeast microsomal membranes using 3-cyano-7-ethoxycoumarin as substrate measured after 10 mins by fluorescence assay. It counts as ADME, cell membranes, Microsomal Membrane.
Experiment [7] has as its target T2, Cytochrome P450 2C19. In words: Inhibition of recombinant human CYP2C19 expressed in HEK293 cells using 3-cyano-7-ethoxycoumarin as substrate pretreated for 30 mins followed by substrate addition measured for 60 mins by fluorescence assay. It counts as ADME.
Experiment [8] deals with T5, Cytochrome P450 2D6 (Homo sapiens, UniProt P10635). Description: Inhibition of recombinant human CYP2D6 expressed in HEK293 cells using 7-ethoxy-methyloxy-3-cyanocoumarin as substrate pretreated for 30 mins followed by substrate addition measured for 60 mins by fluorescence assay. It counts as ADME, cell-based.
T5 sequence (P10635 whole entry): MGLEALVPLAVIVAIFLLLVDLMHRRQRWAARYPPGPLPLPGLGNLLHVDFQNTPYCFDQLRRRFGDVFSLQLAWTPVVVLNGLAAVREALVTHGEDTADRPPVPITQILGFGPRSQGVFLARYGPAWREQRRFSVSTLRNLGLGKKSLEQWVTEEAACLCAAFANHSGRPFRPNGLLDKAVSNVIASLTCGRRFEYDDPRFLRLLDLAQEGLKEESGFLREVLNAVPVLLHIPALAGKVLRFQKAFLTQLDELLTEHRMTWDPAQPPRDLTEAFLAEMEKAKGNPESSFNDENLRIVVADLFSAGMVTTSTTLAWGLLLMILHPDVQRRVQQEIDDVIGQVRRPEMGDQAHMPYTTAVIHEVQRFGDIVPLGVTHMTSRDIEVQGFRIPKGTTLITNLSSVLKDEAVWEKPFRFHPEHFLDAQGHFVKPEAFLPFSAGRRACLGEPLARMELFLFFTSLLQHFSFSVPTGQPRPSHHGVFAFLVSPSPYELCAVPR
The target of experiment [9] is T4, Cytochrome P450 2C9. In words: Inhibition of recombinant human CYP2C9 expressed in HEK293 cells using 3-cyano-7-ethoxycoumarin as substrate pretreated for 30 mins followed by substrate addition measured for 60 mins by fluorescence assay. It counts as ADME.
For experiment [10], the target named is T5, Cytochrome P450 2D6. Description: Inhibition of human CYP2D6 expressed in yeast microsomal membranes using 7-ethoxy-methyloxy-3-cyanocoumarin as substrate measured after 10 mins by fluorescence assay. It counts as ADME, cell membranes, Microsomal Membrane.
In experiment [11] the target is T6, Cytochrome P450 1A1 (Homo sapiens, UniProt P04798).
T6 sequence (P04798 whole entry): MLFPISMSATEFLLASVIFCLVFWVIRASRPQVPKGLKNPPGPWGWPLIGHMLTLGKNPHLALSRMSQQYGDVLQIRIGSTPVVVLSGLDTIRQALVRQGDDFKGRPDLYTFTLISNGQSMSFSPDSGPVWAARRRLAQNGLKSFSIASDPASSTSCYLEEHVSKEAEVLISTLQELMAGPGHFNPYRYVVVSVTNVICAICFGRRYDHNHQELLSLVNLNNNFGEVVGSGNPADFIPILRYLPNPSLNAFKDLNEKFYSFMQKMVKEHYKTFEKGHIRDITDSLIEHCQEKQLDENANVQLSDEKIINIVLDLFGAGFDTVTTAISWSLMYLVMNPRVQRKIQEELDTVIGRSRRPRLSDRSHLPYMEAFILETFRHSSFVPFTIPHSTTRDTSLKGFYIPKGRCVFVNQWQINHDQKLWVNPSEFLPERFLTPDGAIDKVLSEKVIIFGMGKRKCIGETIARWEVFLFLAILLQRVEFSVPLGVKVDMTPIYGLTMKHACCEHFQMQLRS
Description: Inhibition of human CYP1A1 expressed in yeast microsomal membranes using 7-ethoxyresorufin as substrate measured after 10 mins by fluorescence assay. It counts as cell membranes.

Experiment [12] deals with T7, Cytochrome P450 1B1 (Homo sapiens, UniProt Q16678).
T7 sequence (Q16678 whole entry): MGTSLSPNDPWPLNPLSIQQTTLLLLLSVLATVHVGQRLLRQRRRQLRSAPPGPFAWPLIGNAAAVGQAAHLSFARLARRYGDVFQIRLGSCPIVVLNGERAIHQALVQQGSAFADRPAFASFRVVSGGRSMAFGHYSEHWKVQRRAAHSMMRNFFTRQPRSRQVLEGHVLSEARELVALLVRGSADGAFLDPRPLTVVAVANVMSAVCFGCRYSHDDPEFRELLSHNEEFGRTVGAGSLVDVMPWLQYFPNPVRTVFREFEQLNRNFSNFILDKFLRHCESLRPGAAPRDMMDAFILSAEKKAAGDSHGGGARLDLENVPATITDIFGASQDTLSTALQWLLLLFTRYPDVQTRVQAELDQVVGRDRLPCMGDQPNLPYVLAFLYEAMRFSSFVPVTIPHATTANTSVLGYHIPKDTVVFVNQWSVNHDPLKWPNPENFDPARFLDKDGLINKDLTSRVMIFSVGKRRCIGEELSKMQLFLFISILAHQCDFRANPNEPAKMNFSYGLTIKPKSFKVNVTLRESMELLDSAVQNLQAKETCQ
In words: Inhibition of recombinant human CYP1B1 expressed in HEK293 cells using 7-ethoxyresorufin as substrate pretreated for 30 mins followed by substrate addition measured for 60 mins by fluorescence assay. It counts as cell-based.

For experiment [13], the target named is T7, Cytochrome P450 1B1. In words: Inhibition of human CYP1B1 expressed in yeast microsomal membranes using 7-ethoxyresorufin as substrate measured after 10 mins by fluorescence assay. It counts as cell membranes.
Experiment [14] addresses T6, Cytochrome P450 1A1. In words: Inhibition of recombinant human CYP1A1 expressed in HEK293 cells using 7-ethoxyresorufin as substrate pretreated for 30 mins followed by substrate addition measured for 60 mins by fluorescence assay. It counts as cell-based.

T3 sequence (P08684 whole entry): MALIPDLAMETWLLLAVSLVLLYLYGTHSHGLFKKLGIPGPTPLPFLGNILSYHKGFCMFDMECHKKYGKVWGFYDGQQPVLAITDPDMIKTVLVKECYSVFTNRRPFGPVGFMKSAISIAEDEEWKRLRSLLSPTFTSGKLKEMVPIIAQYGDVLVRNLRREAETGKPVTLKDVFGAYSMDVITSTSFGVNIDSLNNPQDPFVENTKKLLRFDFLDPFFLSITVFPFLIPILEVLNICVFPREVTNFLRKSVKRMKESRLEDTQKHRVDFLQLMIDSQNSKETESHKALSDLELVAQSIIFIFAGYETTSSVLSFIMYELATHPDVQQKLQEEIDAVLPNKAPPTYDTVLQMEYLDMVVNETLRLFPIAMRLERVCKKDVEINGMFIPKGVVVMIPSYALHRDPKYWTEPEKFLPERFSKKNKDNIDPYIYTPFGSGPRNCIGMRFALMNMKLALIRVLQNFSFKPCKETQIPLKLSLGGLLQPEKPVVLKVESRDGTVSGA

In the case of `CCOc1c(OC)cc(/C=C/C(=O)c2ccncc2)cc1OC`, the IC50 (in general, the point on the concentration scale where inhibition reaches its midpoint) on Cytochrome P450 1A2 [1] is 2.21 µM; on Cytochrome P450 2C19 [2] it was more than 20 µM; at Cytochrome P450 3A4 [3], more than 20 µM; at Cytochrome P450 2C9 [4], more than 20 µM; on Cytochrome P450 3A4 [5] it was more than 10 µM; at Cytochrome P450 1A2 [6] it was 2.58 µM. Also, the IC50 at Cytochrome P450 2C19 [7] is more than 10 µM; on Cytochrome P450 2D6 [8] it was more than 10 µM; at Cytochrome P450 2C9 [9], more than 10 µM; at Cytochrome P450 2D6 [10] it was 12 µM; at Cytochrome P450 1A1 [11], 0.23 µM; on Cytochrome P450 1B1 [12], 0.61 µM. The IC50 was 0.698 µM against Cytochrome P450 1B1 [13] and 0.28 µM on Cytochrome P450 1A1 [14].

For the compound `COc1cc(/C=C/C(=O)c2ccncc2)cc(OC)c1`, the IC50 on Cytochrome P450 1A2 [1] was 0.028 µM; at Cytochrome P450 2C19 [2] it was more than 20 µM; against Cytochrome P450 3A4 [3] it was more than 20 µM; against Cytochrome P450 2C9 [4] it was more than 20 µM; at Cytochrome P450 3A4 [5], more than 10 µM; against Cytochrome P450 1A2 [6], 0.028 µM. Further, the IC50 on Cytochrome P450 2C19 [7] is more than 10 µM; at Cytochrome P450 2D6 [8] it was more than 10 µM; on Cytochrome P450 2C9 [9], more than 10 µM; on Cytochrome P450 2D6 [10], 16 µM; on Cytochrome P450 1A1 [11], 0.18 µM; on Cytochrome P450 1B1 [12], 0.031 µM. The IC50 was 0.041 µM at Cytochrome P450 1B1 [13] and 0.22 µM at Cytochrome P450 1A1 [14].

For `COc1ccccc1/C=C/C(=O)c1ccncc1`, the IC50 at Cytochrome P450 1A2 [1] is 0.032 µM; on Cytochrome P450 2C19 [2], more than 20 µM; against Cytochrome P450 3A4 [3] it was more than 20 µM; against Cytochrome P450 2C9 [4], more than 20 µM; at Cytochrome P450 3A4 [5], more than 10 µM; at Cytochrome P450 1A2 [6] it was 0.032 µM. Besides, the IC50 on Cytochrome P450 2C19 [7] was more than 10 µM; at Cytochrome P450 2D6 [8], more than 10 µM; at Cytochrome P450 2C9 [9], more than 10 µM; at Cytochrome P450 2D6 [10], 11 µM; against Cytochrome P450 1A1 [11], 0.57 µM; on Cytochrome P450 1B1 [12] it was 0.06 µM. The IC50 against Cytochrome P450 1B1 [13] is 0.048 µM; on Cytochrome P450 1A1 [14], 0.61 µM.

With `COc1ccc(/C=C/C(=O)c2ccncc2)cc1`, the IC50 on Cytochrome P450 1A2 [1] is 12 µM; at Cytochrome P450 2C19 [2], more than 20 µM; against Cytochrome P450 3A4 [3] it was more than 20 µM; against Cytochrome P450 2C9 [4], more than 20 µM; on Cytochrome P450 3A4 [5], more than 10 µM; against Cytochrome P450 1A2 [6] it was 12 µM. The IC50 is more than 10 µM on Cytochrome P450 2C19 [7]; more than 10 µM at Cytochrome P450 2D6 [8]; more than 10 µM at Cytochrome P450 2C9 [9]; 15 µM at Cytochrome P450 2D6 [10]; 6.31 µM at Cytochrome P450 1A1 [11]; 8.52 µM at Cytochrome P450 1B1 [12]. Moreover, the IC50 at Cytochrome P450 1B1 [13] was determined as 7 µM; on Cytochrome P450 1A1 [14], 6.61 µM.

For `COc1cccc(/C=C/C(=O)c2ccncc2)c1`, the IC50 on Cytochrome P450 1A2 [1] was 0.02 µM; at Cytochrome P450 2C19 [2], more than 20 µM; at Cytochrome P450 3A4 [3], more than 20 µM; on Cytochrome P450 2C9 [4], more than 20 µM; at Cytochrome P450 3A4 [5], more than 10 µM; against Cytochrome P450 1A2 [6], 0.02 µM. Further, the IC50 was more than 10 µM at Cytochrome P450 2C19 [7]; more than 10 µM on Cytochrome P450 2D6 [8]; more than 10 µM at Cytochrome P450 2C9 [9]; 12 µM against Cytochrome P450 2D6 [10]; 0.59 µM against Cytochrome P450 1A1 [11]; 0.06 µM at Cytochrome P450 1B1 [12]. Besides, the figures for the IC50 at Cytochrome P450 1B1 [13] and at Cytochrome P450 1A1 [14] were 0.054 µM and 0.62 µM, respectively.

On to `O=C(/C=C/c1ccc2c(c1)OCO2)c1ccncc1`, for which the IC50 on Cytochrome P450 1A2 [1] is 1.5 µM; against Cytochrome P450 2C19 [2], more than 20 µM; against Cytochrome P450 3A4 [3], more than 20 µM; at Cytochrome P450 2C9 [4] it was more than 20 µM; on Cytochrome P450 3A4 [5] it was more than 10 µM; against Cytochrome P450 1A2 [6], 1.5 µM. Moreover, the IC50 was more than 10 µM on Cytochrome P450 2C19 [7]; more than 10 µM on Cytochrome P450 2D6 [8]; more than 10 µM on Cytochrome P450 2C9 [9]; 12 µM against Cytochrome P450 2D6 [10]; 1.12 µM against Cytochrome P450 1A1 [11]; 3.52 µM on Cytochrome P450 1B1 [12]. Further, the IC50 at Cytochrome P450 1B1 [13] came out at 2.11 µM; at Cytochrome P450 1A1 [14] it was 1.12 µM.

As to `O=C(/C=C/c1cccc2ccccc12)c1ccncc1`, the IC50 on Cytochrome P450 1A2 [1] is 0.028 µM; against Cytochrome P450 2C19 [2], more than 20 µM; against Cytochrome P450 3A4 [3] it was more than 20 µM; against Cytochrome P450 2C9 [4], more than 20 µM; at Cytochrome P450 3A4 [5], more than 10 µM; against Cytochrome P450 1A2 [6] it was 0.035 µM. The IC50 at Cytochrome P450 2C19 [7] was more than 10 µM; on Cytochrome P450 2D6 [8], more than 10 µM; on Cytochrome P450 2C9 [9] it was more than 10 µM; on Cytochrome P450 2D6 [10], 18 µM; against Cytochrome P450 1A1 [11], 0.51 µM; at Cytochrome P450 1B1 [12] it was 0.75 µM. The IC50 was 0.65 µM against Cytochrome P450 1B1 [13] and 0.55 µM at Cytochrome P450 1A1 [14].
